How the values were obtained:
[1] = test system: cancer cells expressing the ALK mutant L1196M; test: Cytotoxicity experiments, growth of cells expressing ALK mutant L1196M; type: cell-based, murine; settings: two days incubation
[2] = test system: BaF3-NPM-ALK cells (ALK WT); test: Cytotoxicity experiments, growth of BaF3-NPM-ALK cells, ALK WT; type: cell-based, murine; settings: two days incubation
From the text: Cytotoxicity Experiments.
The cell line that can be used in the assay is Ba/F3, a murine pro-B cell line that has been stably transfected with the expression vector pClneo™ (Promega Corp., Madison Wis.) encoding NPM-ALK and subsequently G418-resistent cells were selected. The inhibitory activity of the compounds of Formula I can be determined as follows: BaF3-NPM-ALK cells (15000/well in a microtiter plate) were transferred to a 96-well microtiter plate. Test compounds (dissolved in DMSO) were then added in a series of concentrations (serial dilutions) with a final concentration of DMSO not exceeding 1% (v/v). […] The cell lysis was completed at room temperature within 60 minutes and the amount of Yopro bound to the DNA was determined by measurement using, for example, a CytoFluor II 96-well reader (PerSeptive Biosystems). IC50 can be determined by computer aided system using the following formula: IC50=[(ABS test−ABS start)/(ABS control−ABS start)]×100 wherein ABS was absorption.

[3] = Metabolic stability in human liver microsomes; type: in vitro ADME; settings: human liver microsomes 0.5 mg/mL, compound 1 μM
Procedure: Metabolic Experiment of Liver Microparticle.
Experiments in microsomes: Human liver microsomes: 0.5 mg/mL, Xenotech; Rat liver microsomes: 0.5 mg/mL, Xenotech; Coenzyme (NADPH/NADH): 1 mM, Sigma Life Science; Magnesium chloride: 5 mM, 100 mM phosphate buffer (pH 7.4).
Preparation of phosphate buffer (100 mM, pH7.4): A pre-formulated 0.5M potassium dihydrogen phosphate (150 mL) was mixed with 0.5M dibasic potassium phosphate (700 mL). The pH of the mixture was adjusted to 7.4 with 0.5M dibasic potassium phosphate solution. The mixture was diluted 5-fold with ultrapure water before use, and magnesium chloride was added to obtain a phosphate buffer (100 mM) containing 100 mM potassium phosphate, 3.3 mM magnesium chloride, pH 7.4.
A NADPH regeneration system solution (containing 6.5 mM NADP, 16.5 mM G-6-P, 3 U/mL G-6-PD, 3.3 mM magnesium chloride) was prepared and placed on wet ice prior to use.
Preparation of stop solution: acetonitrile solution containing 50 ng/mL propranolol hydrochloride and 200 ng/mL tolbutamide (internal standard). 25057.5 μL of phosphate buffer (pH 7.4) was taken into a 50 mL centrifuge tube, to which 812.5 μL human liver microsomes were added, and mixed to obtain a liver microsome dilution solution with a protein concentration of 0.625 mg/mL.
Incubation of the samples: The stock solution of the respective compound was respectively diluted to 0.25 mM with an aqueous solution containing 70% acetonitrile, and used as a working solution, ready for use. 398 μL of the dilution solution of human liver microsomes or rat liver microsome were added to a 96-well incubation plate (N=2), respectively, and 2 μL of 0.25 mM working solution was added and mixed.
Metabolic stability assay: 300 μL of pre-chilled stop solution was added to each well of a 96-well deep well plate and placed on ice as a stop plate. The 96 well incubation plate and NADPH regeneration system were placed in a 37° C. water bath box, shaken at 100 rpm and pre-incubated for 5 min. 80 μL of incubation solution was taken out from each well of the incubation plate and added to the stop plate, mixed, and replenished with 20 μL of NADPH regeneration system solution as a 0-min sample. 80 μL of NADPH regeneration system solution was added to each well of the incubation plate to start the reaction and start counting. […] 100 μL of the supernatant was added to a 96-well plate to which 100 μL of distilled water was previously added, mixed, and analyzed by LC-MS/MS.
Data analysis: The peak areas of the corresponding compound and internal standard were detected by LC-MS/MS system, and the ratio of the peak area of the compound to the internal standard was calculated.

Structure (SMILES)	IC50 [1] [nM]	IC50 [2] [nM]	CLint [3] [µL/min/mg]	t1/2 [3] [h]
CC1Oc2cc(cnc2N)-c2c(nn(C)c2C#N)CN(C)C(=O)c2ccc(F)cc21 (racemic) [Compound 72]	1 to 100	< 1	–	–
CC1Oc2cc(cnc2N)-c2c(nn(C)c2C#N)CN(C)C(=O)c2ccc(F)cc21 (stereo not drawn) [Compound 18]	1 to 100	< 1	–	–
CC1Oc2cc(cnc2N)-c2c(nn(C)c2C#N)CN(C)C(=O)c2ccc(F)cc21 (stereo not drawn) [Compound 28]	1 to 100	< 1	–	–
[2H]C([2H])([2H])n1nc2c(c1C#N)-c1cnc(N)c(c1)OC(C)c1cc(F)ccc1C(=O)N(C)C2 (stereo not drawn) [Compound 28]	–	–	9.7	2.377
CC1Oc2cc(cnc2N)-c2c(nn(C)c2C#N)CN(C)C(=O)c2ccc(F)cc21 (stereo not drawn) [Compound 45]	1 to 100	< 1	–	–
CC1Oc2cc(cnc2N)-c2c(nn(C)c2C#N)CN(C)C(=O)c2ccc(F)cc21 (stereo not drawn) [Compound 58]	1 to 100	< 1	–	–
CC1Oc2cc(cnc2N)-c2c(nn(C)c2C#N)CN(C)C(=O)c2ccc(F)cc21 (stereo not drawn) [Compound 76]	1 to 100	< 1	–	–
C[C@H]1Oc2cc(cnc2N)-c2c(nn(C)c2C#N)CN(C)C(=O)c2ccc(F)cc21 [PF-06463922, reference compound]	1 to 100	< 1	11.8	1.952

Reference: patent publication US10543199B2, “Macrocycle and composition comprising thereof” (Shenzhen TargetRx, Inc., priority 2016, dated 2020)
